Results published in ChEMBL document CHEMBL3425501, “Synthesis and Evaluation of Quinazolines as Inhibitors of the Bacterial Cell Division Protein FtsZ” (ACS Med Chem Lett, 2015).
Active and inactive are the calls of the source. No cut-off for these calls is given here.

Molecular target: T1, Cell division protein FtsZ (Bacillus subtilis (strain 168), UniProt P17865)
T1 sequence (P17865 whole entry): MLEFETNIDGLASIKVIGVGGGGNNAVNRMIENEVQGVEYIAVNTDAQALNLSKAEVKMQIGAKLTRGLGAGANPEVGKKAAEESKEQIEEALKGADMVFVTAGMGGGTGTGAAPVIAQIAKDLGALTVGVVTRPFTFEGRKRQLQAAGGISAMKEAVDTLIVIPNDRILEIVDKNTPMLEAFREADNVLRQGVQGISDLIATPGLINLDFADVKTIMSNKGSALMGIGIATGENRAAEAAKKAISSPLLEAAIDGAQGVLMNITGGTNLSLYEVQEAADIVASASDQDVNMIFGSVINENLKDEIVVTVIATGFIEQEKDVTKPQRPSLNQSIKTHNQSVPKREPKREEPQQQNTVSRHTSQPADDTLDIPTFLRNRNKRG
Assay: Inhibition of Bacillus subtilis FtsZ GTPase activity after 5 mins by enzyme-coupled inhibition assay
With `Cc1ccc2nc(NCc3ccc(Cl)cc3)nc(NCCN(C)C)c2c1` the IC50 was over 128 µM. Work on `Cc1ccc2nc(-c3cc4ccccc4o3)nc(NCCN(C)C)c2c1` yielded an IC50 of over 128 µM. Compound `Cc1ccc2nc(NCc3ccccc3)nc(NCCN(C)C)c2c1` has an IC50 of over 128 µM. In the case of `COc1ccc(-c2nc(NCCN(C)C)c3cc(C)ccc3n2)cc1`, the IC50 is reported as over 128 µM. For `Cc1ccc2nc(-c3ccc4ccccc4c3)nc(NCCN(C)C)c2c1`, the IC50 was over 128 µM. In the case of `Cc1ccc2nc(/C=C/c3ccc(I)cc3)nc(NCCN(C)C)c2c1`, the IC50 is reported as over 128 µM. Compound `Cc1ccc2nc(/C=C/c3ccc(C(C)(C)C)cc3)nc(NCCN(C)C)c2c1` has an IC50 of over 128 µM. `Cc1ccc2nc(/C=C/c3ccc(C(F)(F)F)cc3)nc(NCCN(C)C)c2c1` gave an IC50 of over 128 µM. `Cc1ccc2nc(/C=C/c3ccc(Br)cc3)nc(NCCN(C)C)c2c1` gave an IC50 of over 128 µM. With `Cc1ccc2nc(N)nc(NCCN(C)C)c2c1` the IC50 was over 128 µM. Compound `Cc1ccc2nc(-c3cccs3)nc(NCCN(C)C)c2c1` has an IC50 of over 128 µM. `Cc1ccc2nc(-c3ccc(Cl)cc3)nc(NCCN(C)C)c2c1` gave an IC50 of over 128 µM.

Molecular target: T2, Cell division protein FtsZ (Escherichia coli K-12, UniProt P0A9A6)
T2 sequence (P0A9A6 whole entry): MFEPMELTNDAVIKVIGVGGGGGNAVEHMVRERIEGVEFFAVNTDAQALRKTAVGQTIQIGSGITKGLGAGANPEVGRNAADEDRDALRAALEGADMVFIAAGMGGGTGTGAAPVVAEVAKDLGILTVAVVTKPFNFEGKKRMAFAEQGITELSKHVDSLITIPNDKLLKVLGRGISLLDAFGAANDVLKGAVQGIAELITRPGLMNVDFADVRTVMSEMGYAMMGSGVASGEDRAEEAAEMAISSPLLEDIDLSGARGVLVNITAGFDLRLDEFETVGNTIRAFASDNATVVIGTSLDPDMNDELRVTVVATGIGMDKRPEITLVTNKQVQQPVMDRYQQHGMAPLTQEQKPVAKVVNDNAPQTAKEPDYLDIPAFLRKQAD
Assay: Inhibition of Escherichia coli FtsZ GTPase activity after 5 mins by enzyme-coupled inhibition assay
In the case of `CN(C)CCNc1nc(/C=C/c2ccc(Cl)cc2)nc2ccc(-c3ccccc3)cc12`, the IC50 is reported as 28 µM. `CN(C)CCCNc1nc(/C=C/c2ccc(Cl)cc2)nc2cc3ccccc3cc12` showed an IC50 of 65 µM. In the case of `CC(C)(C)OC(=O)NCCNc1nc(/C=C/c2ccc(Cl)cc2)nc2cc3ccccc3cc12`, the IC50 is reported as over 128 µM. `COCCCNc1nc(/C=C/c2ccc(Cl)cc2)nc2cc3ccccc3cc12` gave an IC50 of over 128 µM. `CN(C)CCNc1nc(/C=C/c2ccc(Cl)cc2)nc2ccc(C3=CCCCC3)cc12` gave an IC50 of 49 µM. In the case of `CN(C)CCNc1nc(/C=C/c2ccc(N=[N+]=[N-])cc2)nc2cc3ccccc3cc12`, the IC50 is reported as 14 µM. Compound `CN(C)CCNc1nc(/C=C/c2ccc(Cl)cc2)nc2ccc(I)cc12` has an IC50 of 95 µM. With `CN(C)CCNc1nc(/C=C/c2ccc(I)cc2)nc2cc3ccccc3cc12` the IC50 was 24 µM. With `CN(C)CCNc1nc(/C=C/c2ccc(Cl)cc2)nc2ccc(-c3ccncc3)cc12` the IC50 was 30 µM. In the case of `CN(C)CCNc1nc(/C=C/c2ccc(Cl)cc2)nc2ccccc12`, the IC50 is reported as over 128 µM. With `Cc1ccc2nc(/C=C/c3ccc(Cl)cc3)nc(NCCN(C)C)c2c1` the IC50 was 24 µM. For `Cc1ccc2nc(C(=O)Nc3ccc(Cl)cc3)nc(NCCN)c2c1`, the IC50 was over 128 µM. With `CN(C)CCNc1nc(/C=C/c2ccc(Cl)cc2)nc2ccc(Br)cc12` the IC50 was 30 µM. Work on `CC(C)(C)OC(=O)CNc1nc(/C=C/c2ccc(Cl)cc2)nc2cc3ccccc3cc12` yielded an IC50 of over 128 µM. `C[N+](C)(C)CCNc1nc(/C=C/c2ccc(Cl)cc2)nc2cc3ccccc3cc12` showed an IC50 of 52 µM. Compound `COCCNc1nc(/C=C/c2ccc(Cl)cc2)nc2ccc(C)cc12` has an IC50 of over 128 µM. Work on `CN(C)CCNc1nc(/C=C/c2ccc(Cl)cc2)nc2ccc(C(=O)c3ccccc3)cc12` yielded an IC50 of 85 µM. Work on `CN(C)CCNc1nc(/C=C/c2ccc(Cl)cc2)nc2ccc(-c3cccs3)cc12` yielded an IC50 of over 128 µM. `CN(C)CCOc1nc(/C=C/c2ccc(Cl)cc2)nc2cc3ccccc3cc12` showed an IC50 of 26 µM. With `NCCNc1nc(/C=C/c2ccc(Cl)cc2)nc2cc3ccccc3cc12` the IC50 was 9 µM. `CN(C)CCNc1nc(/C=C/c2ccc(Cl)cc2)nc2cc(C(F)(F)F)ccc12` showed an IC50 of over 128 µM. Compound `CC(=O)NCCNc1nc(/C=C/c2ccc(Cl)cc2)nc2cc3ccccc3cc12` has an IC50 of over 128 µM. For `Cc1cccc2nc(/C=C/c3ccc(Cl)cc3)nc(NCCN(C)C)c12`, the IC50 was over 128 µM. `Cc1ccc2nc(/C=C/c3ccc(Cl)cc3)nc(NCCN)c2c1` showed an IC50 of 27 µM. In the case of `CSCCNc1nc(/C=C/c2ccc(Cl)cc2)nc2cc3ccccc3cc12`, the IC50 is reported as over 128 µM. In the case of `COc1cc2nc(/C=C/c3ccc(Cl)cc3)nc(NCCN(C)C)c2cc1OC`, the IC50 is reported as 100 µM. `CN(C)CCNc1nc(/C=C/c2ccc(Cl)cc2)nc2ccc(-c3ccc4ccccc4c3)cc12` showed an IC50 of 58 µM. With `COCCNc1nc(/C=C/c2ccc(Cl)cc2)nc2cc3ccccc3cc12` the IC50 was over 128 µM. `Cc1ccc2nc(C(=O)NCc3ccc(Cl)cc3)nc(NCCN(C)C)c2c1` showed an IC50 of over 128 µM. Work on `Cc1ccc2nc(/C=C/c3ccc(Cl)cc3)nc(NCCNC(=O)OC(C)(C)C)c2c1` yielded an IC50 of over 128 µM.

Molecular target: not listed separately
Assay: Inhibition of bacterial FtsZ GTPase activity (unknown origin)
Compound `CCN(CC)CCNc1nc(/C=C/c2ccc(Cl)cc2)nc2cc3ccccc3cc12` has an IC50 of 24 µM. `CN(C)CCNc1nc(/C=C/c2ccc(Cl)cc2)nc2cc3ccccc3cc12` gave an IC50 of 12 µM.

Molecular target: T3, Cell division protein FtsZ (Staphylococcus aureus, UniProt P0A031)
T3 sequence (P0A031 whole entry): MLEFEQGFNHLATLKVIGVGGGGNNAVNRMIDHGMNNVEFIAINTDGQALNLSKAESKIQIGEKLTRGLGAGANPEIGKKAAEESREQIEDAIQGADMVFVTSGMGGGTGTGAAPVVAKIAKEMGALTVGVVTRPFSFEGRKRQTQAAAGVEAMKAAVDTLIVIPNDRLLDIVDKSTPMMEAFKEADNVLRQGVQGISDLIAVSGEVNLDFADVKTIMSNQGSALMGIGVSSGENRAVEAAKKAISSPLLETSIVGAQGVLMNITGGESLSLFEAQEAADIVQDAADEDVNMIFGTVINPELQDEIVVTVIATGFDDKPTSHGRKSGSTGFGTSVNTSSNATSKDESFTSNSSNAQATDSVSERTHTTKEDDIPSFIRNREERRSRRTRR
Assay: Activation of Staphylococcus aureus FtsZ GTPase activity
Compound `NC(=O)c1c(F)ccc(OCc2nc3cc(Cl)cnc3s2)c1F` has an EC50 of 4 µM.

Molecular target: T4, Cell division protein FtsZ (Escherichia coli K-12) (UniProt P0A9A6)
T4 sequence (whole entry): T2 sequence (P0A9A6 whole entry)
Assay: Competitive inhibition of Escherichia coli FtsZ GTPase activity after 5 mins by enzyme-coupled inhibition assay in presence of 10 to 1250 uM GTP
For `CCN(CC)CCNc1nc(/C=C/c2ccc(Cl)cc2)nc2cc3ccccc3cc12`, the inhibition was “inactive”.
